≈ marks a conversion by molar mass, not a printed value. Calls of active or inactive are those of the source. The calls are words filed in the database; no cut-off is given here.
How the values were obtained:
[1] = Inhibition of microtubule assembly by turbidimetry
[2] = Displacement of [3H]colchicine from tubulin after 10 mins relative to control; set-up: concentration or dose not given beside the values
P388 [3] = experiment: In vivo cytotoxicity against mouse P388 cells; assay type: functional
P388 [4] = experiment: In vivo cytotoxicity against mouse P388 cells assessed as increase in life extension at 2.75 to 11 mg/kg; assay type: functional; details: dose mg/kg 2.75-11

| SMILES | ID50 [1] | Activity [2] | ED50 (P388 [3]) | Activity (P388 [4]) |
| --- | --- | --- | --- | --- |
| COc1cc2c(c(OC)c1OC)-c1cc3c(cc1[C@@H](OC(C)=O)C1COC(=O)[C@H]1C2)OCO3 (some centres not stated) | 6 µM | 49% |  |  |
| COc1cc(/C=C/c2ccc(OC)c(O[Si](C)(C)C(C)(C)C)c2O[Si](C)(C)C(C)(C)C)cc(OC)c1OC |  |  | inactive |  |
| COc1ccc(CCc2cc(OC)c(OC)c(OC)c2)c(O)c1O | 3 µM | 13% |  |  |
| COc1cc([C@@H]2c3cc4c(cc3[C@H](O)[C@H]3COC(=O)[C@H]23)OCO4)cc(OC)c1OC | 3 µM | 13% |  |  |
| COc1cc2c(c(OC)c1OC)-c1ccc(OC)c(=O)cc1[C@@H](NC(C)=O)CC2 | 6 µM |  |  |  |
| COc1cc(/C=C/c2ccc(OC)c(OC(C)=O)c2OC(C)=O)cc(OC)c1OC |  |  | 12 µg/mL (≈ 28.8 µM) |  |
| COc1ccc(C[C@@H](O)c2cc(OC)c(OC)c(OC)c2)cc1O | 11 µM | 34% |  |  |
| COc1cc(/C=C\c2ccc(OC)c(O[Si](C)(C)C(C)(C)C)c2O[Si](C)(C)C(C)(C)C)cc(OC)c1OC |  |  | inactive |  |
| COc1cc(/C=C\c2ccc(OC)c(OC(C)=O)c2OC(C)=O)cc(OC)c1OC |  |  | 2.7 µg/mL (≈ 6.48 µM) |  |
| COc1ccc(/C=C\c2cc(OC)c(OC)c(OC)c2)c(O)c1O [COMBRETASTATIN A-1] | 2 µM | 2.2% | 0.99 µg/mL (≈ 2.98 µM) | 26% |
